We go through five compounds from ChEMBL document CHEMBL1201862, “PubChem BioAssay data set” (2004).

Each structure is given as a SMILES string.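 In this assay, cells in 96-well plates receive the compound at five concentrations for 48 hours. Endpoints are linearly interpolated between the surrounding concentrations. The concentration for 50% growth inhibition is given as GI50.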 The source made the active and inactive calls. Rule as the data show it: active = GI50 up to about 1.1 µM and inactive = higher.

Some test systems named below: A498; CAKI-1; UACC-62; SK-OV-3; LOX IMVI; U-251; DMS-273; SNB-78; HCT-15; NCI-H23; SW-620; SNB-19; RPMI-8226; M19-MEL; SN12C; NCI-H460; OVCAR-3; SF-539.
Common to all, as to assay: inhibition of tumour cell growth, NCI panel, 48 h

On to `COC(=O)C1CC/C(=N/c2ccc(C)cc2C)N1` (stereo not drawn), for which the GI50 with A498, with CAKI-1, in the test on UACC-62, in the test with SK-OV-3, with LOX IMVI and in the test on U-251 was > 100 µM (inactive) each time. Further, the GI50 in the test on DMS-273 was > 100 µM (inactive); in the test on SNB-78 it was > 100 µM (inactive); with HCT-15, more than 100 µM; in the test with NCI-H23, > 100 µM (inactive); with SW-620, > 100 µM (inactive); with SNB-19 it was > 100 µM (inactive). For the same compound, the GI50 in the test on RPMI-8226, in the test on M19-MEL, in the test with SN12C, in the test on NCI-H460 and in the test with OVCAR-3 was > 100 µM (inactive) in each case.
Consider `COC(=O)c1c[nH]cc1CCc1c[nH]cc1C(=O)OC`, for which the GI50 was 48.2 µM (inactive) in the test with A498; > 100 µM (inactive) with CAKI-1; > 100 µM (inactive) with SK-OV-3; > 100 µM (inactive) in the test with LOX IMVI; > 100 µM (inactive) in the test with U-251; > 100 µM (inactive) in the test with DMS-273. For the same compound, the GI50 with SNB-78 is > 100 µM (inactive); with HCT-15 it was more than 100 µM; with SF-539 it was > 100 µM (inactive); in the test with NCI-H23 it was > 100 µM (inactive); with SW-620, > 100 µM (inactive); with SNB-19, > 100 µM (inactive). For the same compound, the GI50 in the test on M19-MEL, in the test with SN12C, with NCI-H460 and with OVCAR-3 was > 100 µM (inactive) in each case.
For the compound `CC(C)c1cc(OCC(O)CO)cc(C(C)C)c1` (stereo not drawn), the GI50 in the test with A498, with CAKI-1, in the test with UACC-62, with SK-OV-3, in the test on LOX IMVI and with U-251 was > 100 µM (inactive) throughout. Further, the GI50 is > 100 µM (inactive) in the test on DMS-273; > 100 µM (inactive) in the test on SNB-78; more than 100 µM with HCT-15; > 100 µM (inactive) in the test on SF-539; > 100 µM (inactive) in the test on NCI-H23; > 100 µM (inactive) in the test on SW-620. Besides, the GI50 with SNB-19, in the test on M19-MEL, in the test on SN12C, in the test on NCI-H460 and in the test with OVCAR-3 was > 100 µM (inactive) in each case.
Take `CCOC(=N)CC(=O)Nc1ccccc1CC`: the GI50 in the test with A498, in the test with CAKI-1, in the test with UACC-62, in the test with SK-OV-3, with LOX IMVI and with U-251 was > 100 µM (inactive) throughout. Further, the GI50 was > 100 µM (inactive) with DMS-273; > 100 µM (inactive) in the test with SNB-78; more than 100 µM with HCT-15; > 100 µM (inactive) in the test on SF-539; > 100 µM (inactive) in the test on NCI-H23; > 100 µM (inactive) in the test with SW-620. The GI50 in the test with SNB-19, in the test on M19-MEL, with SN12C, in the test with NCI-H460 and in the test with OVCAR-3 was > 100 µM (inactive) throughout.
As to `CCOC(=O)Cc1nc2ccccc2s1`, the GI50 in the test on A498 is 18.5 µM (inactive); in the test on CAKI-1 it was 19.6 µM (inactive); with UACC-62 it was 17.9 µM (inactive); in the test on SK-OV-3, 50.9 µM (inactive); with LOX IMVI, 17.8 µM (inactive); in the test on U-251 it was 17 µM (inactive). Besides, the GI50 in the test with DMS-273 was 22.6 µM (inactive); in the test with SNB-78, 18.1 µM (inactive); in the test with SF-539, 18.4 µM (inactive); in the test on NCI-H23, 15.6 µM (inactive); in the test with SW-620 it was 19.2 µM (inactive); in the test on SNB-19, 44.5 µM (inactive). The GI50 with M19-MEL is 18.4 µM (inactive); in the test on SN12C it was 16.8 µM (inactive); in the test with NCI-H460, 20.4 µM (inactive); in the test with OVCAR-3, > 10 µM (inactive).
